Measurements taken from patent US8633226B2, “Piperidinyl derivative as a modulator of chemokine receptor activity” (Bristol-Myers Squibb Company, priority 2008, dated 2014).
Where two headings read alike, the source gives them in different places.

Experiments:
Human PXR = Human PXR (Homo sapiens (Human), UniProt O75469); assay: PXR transactivation assay; assay type: cell-based
Description: The cell culture medium used is DMEM. […] Charcoal/dextran treated fetal bovine serum (FBS) was purchased from Hyclone (Logan, Utah). HepG2 cells were obtained from ATCC (Manassas, Va.). Human PXR-pcDNA3 and luciferase reporter containing CYP3A4 promoter, CYP3A-Luc, were generated at Bristol-Myers Squibb. White tissue culture (TC)-surface 384-well plates were purchased from Perkin Elmer (Boston, Mass.). Luciferase substrate (Steady-Glo) was purchased from Promega (Madison, Wis.). Control compounds rifampicin, mifepristone, and sulfinpyrazone were purchased from Sigma (St. Louis, Mo.).
Culture of HepG2 cells is performed in T175 flasks using DMEM containing 10% FBS. The transfection mixture contains 1 μg/mL of PXR-pcDNA3 plasmid DNA, 20 μg/ml of Cyp3A-Lue plasmid DNA, 90 μL/mL of Lipofectamine 2000, and serum-free medium. After incubating at room temperature for 20 minutes, the transfection mixture (1 ml per flask) is applied to the cells in fresh medium (20 mL per flask), and flasks incubated at 37° C. (5% CO2) overnight.
The flasks are then tapped vigorously to break up cell aggregates. After the addition of 8 mL of DMEM containing 5% charcoal/dextran-treated FBS, the entire mixture is transferred to conical tubes. Cells are then centrifuged at 1000 rpm for 5 minutes. Cell pellets are resuspended to a final count of ˜7×10^6 cells/ml, in freezing media (DMEM containing 20% serum and 10% DMSO). The cell suspension is aliquoted into 15-mL polypropylene tubes, 5 mL per tube. Cells are slowly frozen by placing in a Styrofoam-insulated container at −80° C. overnight. Vials are transferred to an Ultracold (−140° C.) freezer after 24 hours for long-term storage.
Vials of cryopreserved cells are thawed rapidly in a warm water bath for five minutes. Cells are pooled and diluted to 50 mL in a 50-mL conical vial. The thawed cells are centrifuged at 1500 rpm for 5 minutes to collect the cells and the supernatant discarded. Cells are then resuspended in fresh Media II (DMEM containing 5% charcoal/dextran-treated FBS, 1% Penicillin/Streptomycin, 100 μM Non-essential Amino Acids, 1 mM Sodium Pyruvate, and 2 mM L-Glutamine), counted using the Guava Cell Counter, and diluted to 1.6×10^5 cells/ml in the same media.
Fifty microliters of cell mixture is added to wells in columns 1-23 of white tissue-culture treated 384-well plates containing 0.25 μL of test compound dissolved in 100% DMSO. Fifty microliters of Media II is added to wells in column 24. The plates are incubated at 37° C. (5% CO2) for 24 hours, then 5 μL of Alamar Blue reagent (Trek Diagnostics, Cat #00-100) is added to each well. Plates are then incubated an additional two hours at 37° C., 5% CO2 and then one hour at room temperature. […] After the fluorescence is measured, 25 μL of luciferase substrate (Steady-Glo, Promega) is added to each well. The plates are incubated for fifteen minutes at room temperature, after which the luminescence is read on a PheraStar (BMG Labtech) plate reader.
Rifampicin (10 μM), a well-known agonist of PXR, is included in each plate as an internal standard and positive control. The data is then expressed as percent control (% CTRL), where the control signal is the signal from the 10 μM rifampicin and the blank signal is that from the DMSO vehicle. % CTRL=((Compound signal−Blank signal)/(Control signal−Blank signal))*100
The EC50 is defined as the concentration corresponding to half of the maximal response derived from the fitted 20-point curve as determined using a four-parameter logistic regression model. Additionally, compounds may also be reported as EC20 or EC60.

hERG = hERG (Homo sapiens (Human), UniProt Q12809); assay: hERG patch clamp assay; assay type: cell-based; conditions: HEK-293 cells stably expressing hERG, pH 7.4, protein-free buffer, read-out: hERG, % inh @ 30 μM
Protocol: Whole-cell patch-clamp was used to directly measure hERG tail currents in HEK-293 cells stably expressing the cloned hERG potassium channel α subunit. Effects of compounds were calculated by measuring inhibition of peak tail current. Experiments were carried out using an aqueous buffer with pH 7.4 at room temperature. There was no protein in the assay buffer. The test concentrations reported are nominal free drug levels.

Protein binding, human = assay type: in vitro ADME
[1] = Electrocardiography in anesthetized rabbits; assay type: in vivo; conditions: male, blood, anesthetized rabbit, iv
Protocol: (§1) A dose-response study of test compound was conducted in anesthetized rabbits to assess the cardiac electrophysiologic profile established in the cellular ion channel assays.
(§2) Experiments were performed in propofol-fentanyl anesthetized closed-chest male rabbits. A body surface electrocardiogram (ECG) and an intra-cardiac His-bundle electrogram were continuously monitored and recorded during the studies, using a PoNeMah system and a Prucka electrophysiological recording system, respectively. Test compound was prepared on the day of study in a vehicle of PEG400:ethanol:water (1:1:1) at a dosing concentration of 30 mg/mL. Test compound (n=3) or vehicle (n=3) was given intravenously over 5 minutes via an infusion pump at incremental doses of 3, 10 and 30 mg/kg. The interval between doses was 10 minutes, allowing for a 5-minute test agent infusion and a 5-minute rest period. Blood was sampled at baseline (pre-drug infusion) and immediately at the end of each infusion. For the 30 mg/kg dose, additional blood samples were taken at 10, 20 and 30 minutes after the end of infusion.
(§3) PR interval, QRS duration and QT interval were averaged from a 1 minute ECG recording period at time of blood sampling. QT interval was corrected for heart rate effects using both Fridericia (QTcf) and Van der Water (QTcv) formulae. AH and HV intervals, representing A-V node conduction and His-Purkinje conduction, respectively, were assessed by manual measurements from the His-bundle electrogram. Data were expressed as percent change from pre-drug baseline (mean±SEM) for PR, QRS, AH and HV intervals as well as delta change from the pre-drug infusion baseline (mean±SEM) for QTc intervals. Changes of ≧10% in PR, QRS, and AH intervals, and 20% in HV interval, as well as >10 ms in QTc interval are considered significant based on experience with the model.

anesthetized rabbits = assay: Electrocardiography in anesthetized rabbits; assay type: in vivo; conditions: anesthetized rabbit
Protocol: as §1, §2, §3

Protein binding, rabbit = assay type: in vitro ADME
[2] = HepG2 cells, CYP3A-Luc reporter

Chain of Human PXR (O75469 whole entry): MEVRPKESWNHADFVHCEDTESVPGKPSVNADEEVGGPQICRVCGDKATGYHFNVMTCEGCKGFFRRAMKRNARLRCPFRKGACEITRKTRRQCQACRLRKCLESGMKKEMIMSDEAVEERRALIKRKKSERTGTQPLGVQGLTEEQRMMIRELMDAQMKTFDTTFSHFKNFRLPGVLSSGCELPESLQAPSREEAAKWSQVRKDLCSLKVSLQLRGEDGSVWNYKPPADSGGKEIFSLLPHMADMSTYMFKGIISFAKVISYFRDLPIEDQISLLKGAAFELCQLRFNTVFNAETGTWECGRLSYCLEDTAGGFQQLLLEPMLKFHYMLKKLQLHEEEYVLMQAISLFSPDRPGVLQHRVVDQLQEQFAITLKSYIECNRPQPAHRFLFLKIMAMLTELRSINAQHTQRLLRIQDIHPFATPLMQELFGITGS
Chain of hERG (Q12809 whole entry): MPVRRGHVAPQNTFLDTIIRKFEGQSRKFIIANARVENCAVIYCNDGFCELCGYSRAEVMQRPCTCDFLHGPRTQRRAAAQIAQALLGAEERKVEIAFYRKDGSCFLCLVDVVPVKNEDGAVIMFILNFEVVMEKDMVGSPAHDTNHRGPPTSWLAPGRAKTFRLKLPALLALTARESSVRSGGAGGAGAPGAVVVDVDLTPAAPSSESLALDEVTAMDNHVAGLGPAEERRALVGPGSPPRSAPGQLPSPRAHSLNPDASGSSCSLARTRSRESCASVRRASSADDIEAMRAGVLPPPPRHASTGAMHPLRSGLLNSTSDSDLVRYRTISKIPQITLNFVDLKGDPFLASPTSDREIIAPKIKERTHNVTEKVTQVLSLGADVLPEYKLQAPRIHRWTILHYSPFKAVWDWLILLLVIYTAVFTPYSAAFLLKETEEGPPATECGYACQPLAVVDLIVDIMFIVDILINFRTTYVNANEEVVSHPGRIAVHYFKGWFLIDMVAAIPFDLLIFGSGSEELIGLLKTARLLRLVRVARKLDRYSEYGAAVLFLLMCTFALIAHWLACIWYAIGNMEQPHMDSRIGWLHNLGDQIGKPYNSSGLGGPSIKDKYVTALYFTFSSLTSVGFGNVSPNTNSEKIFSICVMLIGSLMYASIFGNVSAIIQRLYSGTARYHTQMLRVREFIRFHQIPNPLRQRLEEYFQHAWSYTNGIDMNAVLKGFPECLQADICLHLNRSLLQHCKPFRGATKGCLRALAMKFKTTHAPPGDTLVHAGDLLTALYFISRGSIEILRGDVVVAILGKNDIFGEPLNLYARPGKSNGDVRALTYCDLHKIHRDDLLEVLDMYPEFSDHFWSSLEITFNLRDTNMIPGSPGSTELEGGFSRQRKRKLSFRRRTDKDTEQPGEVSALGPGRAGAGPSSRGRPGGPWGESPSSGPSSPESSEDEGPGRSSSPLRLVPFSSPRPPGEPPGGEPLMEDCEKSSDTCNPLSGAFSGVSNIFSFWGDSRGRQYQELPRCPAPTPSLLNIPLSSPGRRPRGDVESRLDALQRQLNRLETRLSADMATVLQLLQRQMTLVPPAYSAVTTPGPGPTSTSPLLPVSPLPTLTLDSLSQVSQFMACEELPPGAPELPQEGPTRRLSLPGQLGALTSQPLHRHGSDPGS

## CC(C)CC(=O)N[C@@H](C(=O)N1CC[C@](O)(c2ccc(Cl)cc2)C(C)(C)C1)C(C)C [#466]
Human PXR; HepG2 cells, CYP3A-Luc reporter, reported as EC60
  PXR EC60: 1120 nM

## CC(C)[C@@H](NC(=O)C1CCCC1)C(=O)N1CC[C@](O)(c2ccc(Cl)cc2)C(C)(C)C1 [#460]
Human PXR; [2]
  EC50: 530 nM

## CC(C)[C@@H](NC(=O)CC(C)(C)O)C(=O)N1CC[C@](O)(c2ccc(Cl)cc2)C(C)(C)C1 [#1356]
Human PXR; [2]
  EC50: 1830 nM

## CC(C)[C@@H](NC(=O)NCC(C)(C)O)C(=O)N1CC[C@](O)(c2ccc(Cl)cc2)C(C)(C)C1 [Compound I]
hERG
  inhibition at 30 µM: 29%
Protein binding, human
  fraction unbound: 0.19
[1]; 30 mg/kg, read-out: Cmax: Total drug at QT effect dose
  Cmax: 202 µM
[1]; NOEL dose 10 mg/kg, read-out: Cmax: Total drug at NOEL dose
  Cmax: 65.2 µM
Anesthetized rabbits; iv infusion
  NOEL dose (No Observed Effect Level): 10 mg/kg
  QT effect Dose: 30 mg/kg
Anesthetized rabbits; iv infusion, at QT effect dose 30 mg/kg
  QTcf, delta: 12 ms
Anesthetized rabbits; iv, 30 mg/kg
  Cmax: Free drug at QT effect dose: 26 µM
Anesthetized rabbits; iv, NOEL dose 10 mg/kg
  Cmax: Free drug at NOEL dose: 8.5 µM
Human PXR; [2]
  EC50: > 25000 nM
Human PXR; in vitro screen
  PXR activation (in words): not a significant activator
Protein binding, rabbit
  fraction unbound: 0.13
